Tested on: SFV-Rluc
Details: for SFV replication % left: primary screening of chemical libraries, compounds tested at 50 µM; for % left (remaining SFV replication): Supplementary Table 2, moderately active compounds (25 - 60% remaining), primary screen at 50 µM

Row | SMILES | SFV replication % left [%] | % left (remaining SFV replication) [%] | SFV replication % left (surviving fraction, remaining percentage of SFV replication) [%]
1 | COc1ccc2ccc(=O)oc2c1O [NC-113] | 105.6 |  | 
2 | CC(C)(C)NCC(O)COc1cccc2c1CCC(=O)N2.Cl (stereo not shown) [PC-038] | 67.2 |  | 
3 | CC(C)(C)NC[C@H](O)COc1cccc2c1CCCC2=O [PC-027] | 59.6 |  | 
4 | O=C1O[C@H]([C@@H](O)CO)C(O)=C1O [NC-004] | 81.4 |  | 
5 | CCCCC1(CC)C(=O)NC(=O)NC1=O [PC-029] | 45.2 |  | 
6 | COc1c2ccoc2cc2oc(=O)ccc12 [NC-008] | 46.8 |  | 
7 | O=C(O)c1cc(O)ccc1O [NC-024] | 127.8 |  | 
8 | O=C(O[C@@H]1Cc2c(O)cc(O)cc2O[C@@H]1c1cc(O)c(O)c(O)c1)c1cc(O)c(O)c(O)c1 [NC-037] | 155.3 |  | 
9 | CCCCNCC(O)c1ccc(O)cc1 (stereo not shown) [PC-019] | 67.1 |  | 
10 | CCN(CC)CCCC(C)Nc1cc(/C=C/c2ccccc2Cl)nc2cc(Cl)ccc12 (stereo not shown) [NC-066] | 45.8 | 45.8 | 
11 | CC(Cc1ccc(O)c(O)c1)C(C)Cc1ccc(O)c(O)c1 (stereo not shown) [NC-071] | 35.6 | 35.6 | 
12 | Oc1c(I)cc(Cl)c2cccnc12 [PC-049] | 71.9 |  | 
13 | Cc1ccc(C)c(O)c1 [NC-029] | 84.6 |  | 
14 | O=C(O)c1ccc(O)c(O)c1 [NC-077] | 21.1 |  | 
15 | Cc1cc(=O)oc2cc(O)ccc12 [NC-108] | 90.9 |  | 
16 | O=C1c2c(O)cccc2Cc2cccc(O)c21 [PC-066] | 27.2 |  | 
17 | CN(C)CC[C@@H](c1ccc(Br)cc1)c1ccccn1.O=C(O)/C=C\C(=O)O [PC-058] | 69.6 |  | 
18 | O=C1NS(=O)(=O)c2ccccc21.[Na] [PC-183] |  |  | 105.0
19 | CCN(CC)C(=O)c1ccc(O)c(OC)c1 [PC-073] | 85.5 |  | 
20 | O=c1c(-c2ccc(O)cc2)coc2cc(O)cc(O)c12 [NC-042] | 45.6 | 45.6 | 
21 | O=c1c(O)c(-c2ccc(O)c(O)c2)oc2c(O[C@@H]3O[C@H](CO)[C@@H](O)[C@H](O)[C@H]3O)c(O)cc(O)c12 [NC-044] | 105.8 |  | 

Row | SMILES | SFV replication % left [%] | % left (remaining SFV replication) [%] | SFV replication % left (surviving fraction, remaining percentage of SFV replication) [%]
22 | Oc1cccc(O)c1 [NC-085] | 83.0 |  | 
23 | CC(C)NCC(O)c1ccc(Cl)c(Cl)c1.Cl (stereo not shown) [PC-062] | 49.6 |  | 
24 | CC(=O)OCC(=O)[C@@]1(O)CC[C@H]2[C@@H]3CCC4=CC(=O)CC[C@]4(C)[C@H]3[C@@H](O)C[C@@]21C [PC-092] | 116.8 |  | 
25 | O=C(c1ccccc1)c1cc2c(ccc3ccccc32)oc1=O [NC-006] | 39.9 | 39.9 | 
26 | O.O.O.O=c1ccc2cc(O[C@@H]3O[C@H](CO)[C@@H](O)[C@H](O)[C@H]3O)c(O)cc2o1.O=c1ccc2cc(O[C@@H]3O[C@H](CO)[C@@H](O)[C@H](O)[C@H]3O)c(O)cc2o1 [NC-127] | 95.0 |  | 
27 | O=c1ccc2ccc(O)cc2o1 [NC-104] | 93.1 |  | 
28 | CCC(NC(C)C)C(O)c1ccc(O)c(O)c1 (stereo not shown) [PC-101] | 90.7 |  | 
29 | CNC(C)(C)Cc1ccccc1.CNC(C)(C)Cc1ccccc1.O=S(=O)(O)O [PC-111] | 81.8 |  | 
30 | CCCCNC(=O)NS(=O)(=O)c1ccc(N)cc1 [PC-033] | 83.9 |  | 
31 | Oc1cc(O)c2c(c1)O[C@H](c1ccc(O)c(O)c1)[C@@H](O)C2 [NC-011] | 64.5 |  | 
32 | CC(=O)Nc1nnc(S(N)(=O)=O)s1 [PC-003] | 71.3 |  | 
33 | O=c1cc(-c2ccccc2)oc2cc(O)cc(O)c12 [NC-013] | 18.1 |  | 
34 | O=C(N[C@H](CO)[C@H](O)c1ccc([N+](=O)[O-])cc1)C(Cl)Cl [PC-040] | 73.8 |  | 
35 | CC(CN1c2ccccc2Sc2ccccc21)N(C)C.Cl (stereo not shown) [PC-169] |  |  | 48.8
36 | Oc1ccccc1O [NC-012] | 58.4 |  | 
37 | C[C@@H]1O[C@@H](O[C@H]2C[C@@H](O)[C@]3(CO)[C@H]4[C@H](O)C[C@]5(C)[C@@H](C6=CC(=O)OC6)CC[C@]5(O)[C@@H]4CC[C@]3(O)C2)[C@H](O)[C@H](O)[C@H]1O [PC-140] | 90.9 |  | 
38 | O=C1CN=C(c2ccccc2)c2cc([N+](=O)[O-])ccc2N1 [PC-130] | 46.0 | 46.6 | 
39 | CC(C)(C)NCC(O)COc1cccc2c1CC(O)C(O)C2 (stereo not shown) [PC-123] | 60.5 |  | 
40 | O=C1Nc2ccc(Cl)cc2C(c2ccccc2)=NC1O (stereo not shown) [PC-141] | 79.1 |  | 
41 | O=C(O)c1c(O)cccc1O [NC-025] | 118.7 |  | 
42 | Cc1cc(N)c2ccccc2[n+]1CCCCCCCCCC[n+]1c(C)cc(N)c2ccccc21.[Cl-].[Cl-] [PC-056] | 62.5 |  | 

Row | SMILES | SFV replication % left [%] | % left (remaining SFV replication) [%] | SFV replication % left (surviving fraction, remaining percentage of SFV replication) [%]
43 | O=c1c(O)c(-c2ccc(O)c(O)c2)oc2cc(O)cc(O)c12 [NC-080] | 125.8 |  | 
44 | CC(C)(C)NCC(O)c1ccc(O)c(CO)c1.CC(C)(C)NCC(O)c1ccc(O)c(CO)c1.O=S(=O)(O)O (stereo not shown) [PC-185] |  |  | 105.0
45 | O=c1c(-c2ccc(O)cc2)coc2cc(O)ccc12 [NC-020] | 76.6 |  | 
46 | CCOC(=O)c1ccc(O)cc1 [PC-075] | 127.8 |  | 
47 | Cc1cccc(Nc2ccccc2C(=O)O)c1C [PC-108] | 103.5 |  | 
48 | Cl.Cl.OCCN1CCN(CCC=C2c3ccccc3Sc3ccc(Cl)cc32)CC1 [PC-050] | 55.2 | 55.2 | 
49 | Cl.NCC(O)c1ccc(O)cc1 (stereo not shown) [PC-138] | 102.1 |  | 
50 | Cc1cc(=O)oc2c3c4c(cc12)CCCN4CCC3 [NC-015] | 34.6 | 34.6 | 
51 | CCCCNc1ccc(C(=O)OCCN(C)C)cc1.Cl [PC-034] | 63.8 |  | 
52 | CC(=O)NS(=O)(=O)c1ccc(N)cc1 [PC-005] | 63.2 |  | 
53 | COC(=O)c1cc(O)c(O)c(O)c1 [NC-064] | 67.8 |  | 
54 | Oc1ccc(O)cc1 [NC-053] | 16.9 |  | 
55 | CCN(CC)c1ccc2cc(-c3nc4ccccc4[nH]3)c(=O)oc2c1 [NC-017] | 37.3 | 37.3 | 
56 | COc1cc(/C=C/C(=O)O)ccc1O [NC-039] | 63.4 |  | 
57 | COc1cc2oc(=O)ccc2cc1O [NC-109] | 120.6 |  | 
58 | COc1cc(/C=C/C(=O)O)cc(OC)c1O [NC-095] | 22.0 |  | 
59 | CN(C)CCOC(c1ccccc1)c1ccccc1.Cl [PC-067] | 41.0 |  | 
60 | CC1=CC(=O)c2ccccc2C1=O [PC-109] | 28.3 |  | 
61 | CC(C)NCC(O)COc1cccc2ccccc12.Cl (stereo not shown) [PC-174] |  |  | 74.0
62 | CCNCC(O)c1cccc(O)c1 (stereo not shown) [PC-078] | 116.8 |  | 
63 | O=C(O)/C=C/c1ccccc1O [NC-014] | 77.6 |  | 

Row | SMILES | SFV replication % left [%] | % left (remaining SFV replication) [%] | SFV replication % left (surviving fraction, remaining percentage of SFV replication) [%]
64 | C=CCC(=NOS(=O)(=O)[O-])SC1OC(CO)C(O)C(O)C1O.O.[K+] (stereo not shown) [NC-096] | 47.6 | 47.6 | 
65 | O=C(O)c1cccc(O)c1O [NC-023] | 93.1 |  | 
66 | COc1cc(-c2[o+]c3cc(O)cc(O[C@@H]4O[C@H](CO)[C@@H](O)[C@H](O)[C@H]4O)c3cc2O[C@@H]2O[C@H](CO)[C@@H](O)[C@H](O)[C@H]2O)cc(OC)c1O.[Cl-] [NC-063] | 15.4 |  | 
67 | COC(=O)c1ccc(O)cc1 [PC-119] | 69.3 |  | 
68 | O=c1cc(-c2ccc(O)cc2)oc2cc(O)cc(O)c12 [NC-003] | 18.0 |  | 
69 | O.O.O=c1c(O)c(-c2ccc(O)cc2O)oc2cc(O)cc(O)c12 [NC-067] | 82.9 |  | 
70 | CCOc1ccc(NC(N)=O)cc1 [PC-071] | 103.3 |  | 
71 | CN(C)CCC=C1c2ccccc2COc2ccccc21.Cl [PC-070] | 21.6 |  | 
72 | CN1CCN=C(c2ccccc2)c2cc(Cl)ccc21 [PC-107] | 87.5 |  | 
73 | OCCN1CCN(CCCN2c3ccccc3C=Cc3ccccc32)CC1 [PC-139] | 27.5 |  | 
74 | CC(C)(C)NCC(O)COc1ccccc1C#N (stereo not shown) [PC-026] | 40.7 |  | 
75 | O=C(CO)c1ccccc1 [NC-047] | 129.7 |  | 
76 | CC12CCC(CC1=O)C2(C)C (stereo not shown) [PC-036] | 83.9 |  | 
77 | O=c1ccc2ccccc2o1 [NC-018] | 68.8 |  | 
78 | COc1ccc2cc([C@H](C)C(=O)O)ccc2c1 [PC-126] | 92.7 |  | 
79 | CCCCCCCCCCCCOC(=O)c1cc(O)c(O)c(O)c1 [NC-059] | 12.3 |  | 
80 | O=C1CN=C(c2ccccc2F)c2cc(Cl)ccc2N1 [PC-057] | 68.5 |  | 
81 | C=CCC1(CC=C)C(=O)NC(=O)NC1=O [PC-008] | 45.6 |  | 
82 | Br.CC(Cc1ccc(O)cc1)NCC(O)c1cc(O)cc(O)c1 (stereo not shown) [PC-081] | 106.6 |  | 

— article PMC3242765, “Inhibitors of Alphavirus Entry and Replication Identified with a Stable Chikungunya Replicon Cell Line and Virus-Based Assays” (PLoS ONE, 2011)
